{
  "source": "ChEMBL document CHEMBL1201862",
  "about": "“PubChem BioAssay data set” (2004)",
  "key": {"cells [1]": {"test": "cells", "assay_type": "functional, cell-based"}, "[2]": {"test": "viability loss in HepG2 hepatoma cells – cell-based, ATP luminescence, cherry-pick, activator set 2, cytotoxicity control, dose response (AID 1053143)", "assay_type": "functional"}, "cells [3]": {"test": "cells", "assay_type": "functional, cell-based", "remark": "listed apart in the source"}, "[4]": {"target": "Fructose-bisphosphate aldolase (Mycobacterium tuberculosis, UniProt P9WQA3)", "sequence (P9WQA3 whole entry)": "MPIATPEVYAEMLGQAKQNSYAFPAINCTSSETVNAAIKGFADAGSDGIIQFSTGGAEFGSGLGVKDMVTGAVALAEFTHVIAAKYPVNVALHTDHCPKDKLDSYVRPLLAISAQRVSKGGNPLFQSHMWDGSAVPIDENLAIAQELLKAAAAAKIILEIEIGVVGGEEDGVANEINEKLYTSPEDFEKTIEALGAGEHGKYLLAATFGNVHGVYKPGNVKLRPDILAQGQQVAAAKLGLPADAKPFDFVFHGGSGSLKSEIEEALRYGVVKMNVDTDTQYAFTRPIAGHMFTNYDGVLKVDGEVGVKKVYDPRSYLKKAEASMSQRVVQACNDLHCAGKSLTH", "test": "Fluorescence-based biochemical high throughput dose response assay for inhibitors of the fructose-bisphosphate aldolase (FBA) of M. tuberculosis.", "assay_type": "functional"}, "[5]": {"test": "HGIII-sPLA2 enzyme inhibition potency – biochemical, QFRET, IC50, dose response (AID 743457);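 further: green fluorescence rise as the enzyme cleaves BODIPY PC-A2 in liposomes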"}, "cells [6]": {"test": "cells", "assay_type": "functional, cell-based", "remark": "listed apart in the source"}, "[7]": {"test": "A549 cell cytotoxicity, dose response, cytotoxicity control, plate reader, cherry-pick, antagonist series (AID 743412)", "assay_type": "functional, cell-based"}, "[8]": {"test": "blockers of bursicon-stimulated LGR2 cAMP reporter – cell-based, HEK293, CRE-luciferase reporter, cherry pick, set 2, dose response (AID 743343);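 further: transfected cells were stimulated with diluted bursicon conditioned medium after compound addition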", "assay_type": "functional"}, "[9]": {"target": "T1, Nuclear receptor subfamily 0 group B member 1 (Homo sapiens, UniProt P51843)", "T1 sequence (P51843 whole entry)": "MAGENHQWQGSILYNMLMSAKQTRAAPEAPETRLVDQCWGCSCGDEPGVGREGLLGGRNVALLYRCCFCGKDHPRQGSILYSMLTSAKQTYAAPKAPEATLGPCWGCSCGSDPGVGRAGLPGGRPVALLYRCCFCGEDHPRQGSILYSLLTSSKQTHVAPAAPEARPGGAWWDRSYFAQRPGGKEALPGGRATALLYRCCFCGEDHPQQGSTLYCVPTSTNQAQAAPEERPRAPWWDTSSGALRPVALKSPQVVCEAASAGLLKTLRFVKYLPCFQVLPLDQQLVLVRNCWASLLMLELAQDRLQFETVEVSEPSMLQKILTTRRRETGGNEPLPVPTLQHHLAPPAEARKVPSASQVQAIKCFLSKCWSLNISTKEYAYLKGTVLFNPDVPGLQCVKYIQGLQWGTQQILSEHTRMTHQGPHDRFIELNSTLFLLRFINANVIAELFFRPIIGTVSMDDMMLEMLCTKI", "assay_type": "functional, cell-based"}, "[10]": {"test": "blockade of melanocortin 4 receptor signaling – cell-based, plate reader, cherry pick, counter-screen for LGR2 antagonist project, dose response (AID 743444);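 further: transfected HEK 293 cells stimulated with alpha-MSH peptide; potency of inhibitors of the alpha-MSH evoked signal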", "assay_type": "functional"}, "[11]": {"target": "Histone-lysine N-methyltransferase NSD2 (Homo sapiens, UniProt O96028)", "sequence (O96028 whole entry)": "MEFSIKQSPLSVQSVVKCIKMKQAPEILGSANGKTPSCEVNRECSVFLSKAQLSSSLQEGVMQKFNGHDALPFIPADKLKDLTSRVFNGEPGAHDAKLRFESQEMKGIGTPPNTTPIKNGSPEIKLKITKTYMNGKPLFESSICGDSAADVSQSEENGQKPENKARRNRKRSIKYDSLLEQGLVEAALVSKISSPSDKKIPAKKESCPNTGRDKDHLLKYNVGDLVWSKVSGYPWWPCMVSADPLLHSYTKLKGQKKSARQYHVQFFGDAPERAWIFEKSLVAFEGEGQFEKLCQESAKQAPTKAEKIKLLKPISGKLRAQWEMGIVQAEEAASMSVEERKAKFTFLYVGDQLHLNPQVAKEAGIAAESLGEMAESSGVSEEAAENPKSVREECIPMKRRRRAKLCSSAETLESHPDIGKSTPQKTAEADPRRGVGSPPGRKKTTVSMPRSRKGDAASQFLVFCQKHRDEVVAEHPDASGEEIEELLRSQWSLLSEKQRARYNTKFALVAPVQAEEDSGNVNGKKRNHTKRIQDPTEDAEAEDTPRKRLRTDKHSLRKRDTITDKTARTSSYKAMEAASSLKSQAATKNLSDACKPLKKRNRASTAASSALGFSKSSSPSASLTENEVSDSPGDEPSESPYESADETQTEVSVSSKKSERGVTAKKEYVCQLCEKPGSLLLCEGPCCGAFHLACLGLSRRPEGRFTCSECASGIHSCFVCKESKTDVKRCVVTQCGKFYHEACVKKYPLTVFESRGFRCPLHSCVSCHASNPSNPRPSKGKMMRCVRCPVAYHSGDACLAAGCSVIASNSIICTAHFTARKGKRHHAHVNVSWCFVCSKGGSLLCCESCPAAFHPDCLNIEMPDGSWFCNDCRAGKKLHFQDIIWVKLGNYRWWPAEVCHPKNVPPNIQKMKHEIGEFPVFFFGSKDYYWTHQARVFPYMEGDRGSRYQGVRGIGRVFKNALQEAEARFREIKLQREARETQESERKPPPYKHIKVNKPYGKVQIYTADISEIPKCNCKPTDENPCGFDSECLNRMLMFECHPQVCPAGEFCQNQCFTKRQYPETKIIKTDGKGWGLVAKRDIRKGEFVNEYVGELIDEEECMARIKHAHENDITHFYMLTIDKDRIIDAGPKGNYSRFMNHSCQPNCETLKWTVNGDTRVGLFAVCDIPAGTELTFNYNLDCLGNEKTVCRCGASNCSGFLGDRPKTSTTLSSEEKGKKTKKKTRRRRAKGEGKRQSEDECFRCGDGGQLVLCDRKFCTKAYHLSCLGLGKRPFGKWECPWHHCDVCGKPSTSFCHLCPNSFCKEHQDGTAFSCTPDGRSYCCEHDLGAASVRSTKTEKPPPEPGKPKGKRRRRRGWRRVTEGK", "assay_type": "biochemical"}, "Vero": {"system": "Vero", "test": "viability of Vero cells under compound – cytotoxicity control for flavivirus capping enzyme inhibitors (AID 588742)", "assay_type": "functional", "settings": "Chlorocebus sabaeus"}, "[12]": {"target": "T2, Mannose-6-phosphate isomerase (Homo sapiens, UniProt P34949)", "T2 sequence (P34949 whole entry)": "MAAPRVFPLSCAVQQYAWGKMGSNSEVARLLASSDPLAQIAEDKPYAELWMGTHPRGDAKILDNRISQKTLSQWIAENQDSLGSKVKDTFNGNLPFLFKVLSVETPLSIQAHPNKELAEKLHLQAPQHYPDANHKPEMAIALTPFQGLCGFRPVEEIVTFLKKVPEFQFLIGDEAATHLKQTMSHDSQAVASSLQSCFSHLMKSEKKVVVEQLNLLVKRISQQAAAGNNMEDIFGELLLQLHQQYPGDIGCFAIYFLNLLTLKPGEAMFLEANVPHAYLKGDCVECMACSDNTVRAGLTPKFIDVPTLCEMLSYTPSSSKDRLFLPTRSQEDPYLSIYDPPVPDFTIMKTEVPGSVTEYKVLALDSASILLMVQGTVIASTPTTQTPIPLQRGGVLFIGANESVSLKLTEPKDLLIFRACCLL", "test": "MPI inhibition at elevated mannose 6-phosphate – biochemical, fluorescence intensity, high mannose 6-phosphate, primary screen (AID 1220)"}, "Protein RecA": {"target": "T3, Protein RecA (Mycobacterium tuberculosis, UniProt P9WHJ3)", "T3 sequence (P9WHJ3 whole entry)": "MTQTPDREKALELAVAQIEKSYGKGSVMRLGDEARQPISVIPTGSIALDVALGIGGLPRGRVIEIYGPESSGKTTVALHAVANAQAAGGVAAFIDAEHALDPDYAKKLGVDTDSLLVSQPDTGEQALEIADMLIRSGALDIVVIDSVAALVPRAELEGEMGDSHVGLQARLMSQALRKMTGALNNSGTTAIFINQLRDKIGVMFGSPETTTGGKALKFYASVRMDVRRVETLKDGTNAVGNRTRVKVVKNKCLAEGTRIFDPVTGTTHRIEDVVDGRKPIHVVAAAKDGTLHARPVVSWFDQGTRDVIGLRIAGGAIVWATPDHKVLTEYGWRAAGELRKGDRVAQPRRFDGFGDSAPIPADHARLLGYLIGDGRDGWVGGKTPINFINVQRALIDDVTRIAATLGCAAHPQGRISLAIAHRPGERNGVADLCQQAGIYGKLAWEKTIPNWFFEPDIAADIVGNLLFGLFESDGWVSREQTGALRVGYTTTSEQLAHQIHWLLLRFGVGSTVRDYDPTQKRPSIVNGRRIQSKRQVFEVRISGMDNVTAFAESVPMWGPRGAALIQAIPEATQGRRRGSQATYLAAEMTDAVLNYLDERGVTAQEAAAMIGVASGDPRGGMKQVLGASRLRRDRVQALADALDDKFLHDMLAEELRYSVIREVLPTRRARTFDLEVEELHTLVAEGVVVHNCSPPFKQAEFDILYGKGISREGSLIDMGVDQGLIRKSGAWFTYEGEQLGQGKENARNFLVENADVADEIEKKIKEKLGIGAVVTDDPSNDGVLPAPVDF", "test": "Fluorescence Cell-Free Homogeneous Dose Retest to Identify Inhibitors of RecA-Intein Splicing Activity. [Related pubchem assays (depositor defined):AID2097, AID2223, AID489010, AID492950]", "assay_type": "functional"}, "[13]": {"target": "T4, Replicative DNA helicase DnaB (Mycobacterium tuberculosis, UniProt P9WMR3)", "T4 sequence (P9WMR3 whole entry)": "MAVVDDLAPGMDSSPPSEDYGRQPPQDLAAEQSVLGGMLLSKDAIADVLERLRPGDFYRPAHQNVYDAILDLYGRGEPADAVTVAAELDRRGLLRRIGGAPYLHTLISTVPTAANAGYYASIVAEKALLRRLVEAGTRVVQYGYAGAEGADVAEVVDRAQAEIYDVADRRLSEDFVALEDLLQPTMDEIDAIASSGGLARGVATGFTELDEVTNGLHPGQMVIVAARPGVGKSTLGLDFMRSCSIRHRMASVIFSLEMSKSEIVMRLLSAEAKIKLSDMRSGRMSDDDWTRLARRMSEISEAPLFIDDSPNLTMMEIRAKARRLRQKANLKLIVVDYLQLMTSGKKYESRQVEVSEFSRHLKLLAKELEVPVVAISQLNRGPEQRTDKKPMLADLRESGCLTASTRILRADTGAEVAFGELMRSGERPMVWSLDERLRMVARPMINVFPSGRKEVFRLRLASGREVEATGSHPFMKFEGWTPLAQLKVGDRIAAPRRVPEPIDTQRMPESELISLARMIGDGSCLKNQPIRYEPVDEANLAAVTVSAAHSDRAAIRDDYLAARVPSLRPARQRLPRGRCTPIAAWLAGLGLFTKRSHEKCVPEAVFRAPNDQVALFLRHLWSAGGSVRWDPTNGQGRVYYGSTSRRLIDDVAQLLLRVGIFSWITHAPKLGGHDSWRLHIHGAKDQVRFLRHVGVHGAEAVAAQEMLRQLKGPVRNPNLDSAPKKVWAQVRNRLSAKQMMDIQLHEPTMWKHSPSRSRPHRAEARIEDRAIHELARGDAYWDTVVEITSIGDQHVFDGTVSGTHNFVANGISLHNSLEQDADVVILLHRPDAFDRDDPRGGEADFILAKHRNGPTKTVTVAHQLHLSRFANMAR", "test": "DnaB intein splicing inhibitors, dose response, biochemical, cell-free fluorescence (AID 449749)", "assay_type": "functional"}, "[14]": {"test": "blockers of HIV-1 envelope-mediated cell-cell fusion – cherry-pick, dose response (AID 652057)", "assay_type": "functional, cell-based"}, "[15]": {"test": "viability loss in CEM21 cells – cell-based, plate reader, dry powder, cytotoxicity control, dose response (AID 687026)", "assay_type": "functional"}, "[16]": {"test": "reduction of Shn3 3'UTR-driven luciferase in osteoblasts – cell-based, Clone20 osteoblasts, firefly luciferase, cherry-picked, dose response (AID 624132)", "assay_type": "functional"}, "[17]": {"test": "off-target signal loss in HeLa-CEM21 co-culture – HeLa F-luc CTL cells, cherry-picked, counter-screen for HIV-1 Env fusion inhibitor project, dose response (AID 652040);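 further: potency for signal decrease marking cytotoxic or nonspecific inhibition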", "assay_type": "functional, cell-based"}, "[18]": {"test": "loss of viability in HepG2 cells – cell-based, CellTiter-Glo, cherry-picked, cytotoxicity control for Shn3 inhibitor project, dose response (AID 624134)", "assay_type": "functional"}, "[19]": {"test": "HIV-1 AD8 envelope cell-cell fusion blockers – cherry-pick, dose response (AID 652062);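 further: potency is for inhibitors of fusion seen as a drop in luminescence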", "assay_type": "functional, cell-based"}, "INS1": {"system": "INS1", "test": "INS-1E survival protection against cytokine death – cell-based, luminescence, retest, dose response (AID 449756);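 further: cell death triggered by IL-1 beta plus TNF-alpha plus IFN-gamma mixture; protective hits raise ATP signal compared with cytokine alone wells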", "assay_type": "functional", "settings": "Rattus norvegicus"}, "[20]": {"test": "non-specific 3'UTR reporter inhibition in Clone20-Shn3RL – cell-based, Renilla luciferase, cherry-picked, counter-screen for Shn3 inhibitor project, dose response (AID 624133)", "assay_type": "functional"}, "Protein Wnt-3a": {"target": "Protein Wnt-3a (Mus musculus, UniProt P27467)", "sequence (P27467 whole entry)": "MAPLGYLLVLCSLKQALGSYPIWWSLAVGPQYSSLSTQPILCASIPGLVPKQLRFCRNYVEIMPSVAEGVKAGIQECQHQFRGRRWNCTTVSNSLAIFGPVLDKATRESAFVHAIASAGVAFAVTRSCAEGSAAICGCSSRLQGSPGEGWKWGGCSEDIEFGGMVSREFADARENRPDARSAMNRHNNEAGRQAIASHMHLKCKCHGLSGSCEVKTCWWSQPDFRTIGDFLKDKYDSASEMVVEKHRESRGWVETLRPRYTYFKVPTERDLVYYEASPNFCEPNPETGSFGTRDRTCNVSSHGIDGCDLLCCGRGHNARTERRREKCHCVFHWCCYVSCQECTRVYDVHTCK", "test": "antagonism of Wnt3a pathway luciferase reporter – Wnt-LIGHT cells, luminescence, selectivity assay for Gli-SUFU antagonist project, dose response (AID 651570);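 further: Wnt-LIGHT reporter cells stimulated with conditioned medium from Wnt3a-producing cells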", "assay_type": "functional", "settings": "read-out: IC50_Mean"}, "Nonstructural protein 1": {"target": "Nonstructural protein 1 (Influenza A virus, UniProt Q194T2)", "sequence (Q194T2 whole entry)": "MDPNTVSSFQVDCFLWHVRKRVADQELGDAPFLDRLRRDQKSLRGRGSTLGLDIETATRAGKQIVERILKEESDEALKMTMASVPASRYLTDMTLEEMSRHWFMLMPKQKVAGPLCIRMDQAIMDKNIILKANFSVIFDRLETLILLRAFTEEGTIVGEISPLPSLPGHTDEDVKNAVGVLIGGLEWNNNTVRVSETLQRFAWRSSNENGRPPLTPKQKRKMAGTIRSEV", "assay_type": "functional, Influenza A virus (A/California/07/2009(H1N1))"}},
  "note": "Calls of active or inactive are those of the source.",
  "data": [
    {"smiles": "COCCNC(=O)c1cc(-c2cccs2)on1", "values": [
      {"measurement": "EC50", "setting": "cells [1]", "value": "> 350 µM (not active)"},
      {"measurement": "AC50", "setting": "[2]", "value": "26 µM (active)"},
      {"measurement": "EC50", "setting": "cells [3]", "value": "70.8 µM (active)"}
    ]},
    {"smiles": "COc1cc2c(cc1OC)C(C1C(=O)CC(C)CC1=O)N(C(=O)CCl)CC2", "note": "(stereo not drawn)", "values": [
      {"measurement": "IC50", "setting": "[4]", "value": "> 9.99 µM (inactive)"}
    ]},
    {"smiles": "Sc1nnc(-c2ccc(Cl)cc2)n1-c1ccc2c(c1)OCCO2", "values": [
      {"measurement": "IC50", "setting": "[5]", "value": "> 122 µM (inactive)"}
    ]},
    {"smiles": "COc1ccc(-c2cn3cc(C)ccc3n2)cc1F", "values": [
      {"measurement": "IC50", "setting": "cells [6]", "value": "> 67.6 µM (inactive)"},
      {"measurement": "AC50", "setting": "[7]", "value": "30.9 µM (active)"},
      {"measurement": "AC50", "setting": "[8]", "value": "3 µM (active)"},
      {"measurement": "IC50", "setting": "[9]", "value": "> 67.6 µM (inactive)"},
      {"measurement": "AC50", "setting": "[10]", "value": "2.87 µM (active)"}
    ]},
    {"smiles": "COCC(C)OC(=O)/C(C#N)=C\\c1coc2ccc(C)cc2c1=O", "note": "(stereo not drawn)", "values": [
      {"measurement": "AC50", "setting": "[11]", "value": "11.9 µM (active)"}
    ]},
    {"smiles": "CCOC(=O)c1c(NC(=O)c2ccco2)n(C2CCCCC2)c2nc3ccccc3nc12", "values": [
      {"measurement": "CC50", "setting": "Vero", "value": "> 40 µM (active)"},
      {"measurement": "IC50", "setting": "[12]", "value": "> 50 µM (not active)"},
      {"measurement": "IC50", "setting": "[4]", "value": "1.67 µM (active)"},
      {"measurement": "EC50", "setting": "Protein RecA", "value": "2.62 µM (active)"},
      {"measurement": "AC50", "setting": "[13]", "value": "229 µM (active)"}
    ]},
    {"smiles": "Cc1cccc(-n2c(S)nnc2-c2ccoc2C)c1", "values": [
      {"measurement": "IC50", "setting": "[5]", "value": "> 122 µM (inactive)"}
    ]},
    {"smiles": "COc1ccc(CC(=O)Nc2cccc(S(=O)(=O)N3CCCCCC3)c2)cc1OC", "values": [
      {"measurement": "AC50", "setting": "[14]", "value": "7.05 µM (active)"},
      {"measurement": "AC50", "setting": "[15]", "value": "> 70 µM (inactive)"},
      {"measurement": "AC50", "setting": "[16]", "value": "2.27 µM (active)"},
      {"measurement": "AC50", "setting": "[17]", "value": "> 70 µM (inactive)"},
      {"measurement": "AC50", "setting": "[18]", "value": "2.12 µM (active)"},
      {"measurement": "AC50", "setting": "[19]", "value": "3.47 µM (active)"},
      {"measurement": "AC50", "setting": "INS1", "value": "6.12 µM (active)"},
      {"measurement": "AC50", "setting": "[20]", "value": "30 µM (active)"},
      {"measurement": "IC50", "setting": "Protein Wnt-3a", "value": "1.73 µM (active)"}
    ]},
    {"smiles": "c1ccc(-c2cnc(-c3ccccn3)nn2)cc1", "values": [
      {"measurement": "IC50", "setting": "Nonstructural protein 1", "value": "18.9 µM (active)"},
      {"measurement": "AC50", "setting": "[2]", "value": "26 µM (active)"}
    ]}
  ]
}
